Source: patent US4209612A, “Fortimicin factors KF and KG and process for production thereof” (Abbott Laboratories, priority 1977, dated 1980)
Converted amounts (≈) assume the structure as drawn. “Also recorded” adds a separate entry of the source.

Assays:
[1] = Solubility of the free base; assay type: physicochemical; details: for solubility in organic solvents / solubility in ethanol and acetone / solubility in methanol / solubility in water: free base; for solubility in organic solvents: chloroform, benzene, ethyl acetate, butyl acetate, ether, butanol, petroleum ether, n-hexane
[2] = test system: Gram-positive and Gram-negative bacteria; experiment: Antibacterial spectrum (overall); assay type: cell-based; details: in words
Excerpt: (§1) In the following Table 4, the antibacterial spectra of Fortimicin KF and Fortimicin KG against various microorganisms are set forth.
(§2) (Minimum Inhibitory Concentration, γ/ml measured by
(§3) agar dilution method at pH 8.0)

[3] = test system: Bacillus subtilis No. 10707; experiment: Antibacterial activity of the preparate (units/mg), paper disc method; assay type: cell-based
Description: After the completion of fermentation, the culture liquor is adjusted to pH 2.5 with concentrated sulfuric acid and is stirred for 30 minutes. Thereafter, about 7 kg of a filter aid, Radiolite No. 600 (product of Showa Kagaku Kogyo Co., Ltd.) is added to the culture liquor and the microbial cells are removed by filtration. The filtrate is adjusted to pH 7.5 by the addition of 6 N sodium hydroxide. The resulting filtrate is passed through a column packed with about 20 L. of a cation exchange resin, Amberlite IRC-50 (ammonia form). The active principles are adsorbed on the resin. After the resin is washed with water, elution of the active principles is carried out with 1 N aqueous ammonia. The eluate is subjected to determination of activity by a paper disc method using an agar plate of Bacillus subtilis No. 10707. Fractions showing activity are combined and concentrated under reduced pressure to about 1 L. The concentrate is passed through a column packed with 500 ml of an anion exchange resin, Dowex 1×2 (OH form) and then about 2 L. of water is passed through the column. In this manner, impurities are removed and the active principles are eluted with water. The active fractions are combined and concentrated under reduced pressure to about 100 ml. The concentrate is then passed through a column packed with about 50 ml of active carbon powder. The active principles are adsorbed on the active carbon. The column is washed with water. The effluent and washings are discarded. Elution is then carried out with 0.2 N sulfuric acid. The eluate is subjected to determination of activity by a paper disc method using Bacillus subtilis No. 10707. The active fractions are combined and passed through a column of an anion exchange resin, Dowex 44 (OH form) and elution of the active principles is carried out with water. The active fractions are combined and concentrated to about 60 ml. The concentrate is then freeze-dried to obtain a crude powder of Fortimicin complex. The yield of the crude powder is about 40 g.
(§4) The powder is charged over about 500 ml of silica gel in a glass column to form a uniform, thin layer. The silica gel is previously suspended in a mixed solvent of chloroform, ethanol, concentrated aqueous ammonia and acetone (2:2:1:2 by volume), and packed in the glass column to form a tight, uniform layer. The column is then thoroughly washed with the same solvent. After the crude powder is charged, the solvent having the same composition as described above is poured gradually into the column from the top and thereafter elution is carried out continuously at a flow rate of 50 ml/hour. The eluate is recovered in 20 ml fractions and the activity of each of the fractions is determined by a paper disc method using Bacillus subtilis No. 10707. First, Fortimicin KF is eluted followed by Fortimicin A and Fortimicin D. The active fractions are subjected to thin layer chromatography. The fractions containing Fortimicin KF are collected and concentrated under reduced pressure to remove the solvent.
The residue is dissolved in a small amount of water and then the solution is freeze-dried to obtain about 2 g of a purified preparate of the free base of Fortimicin KF.
as §4, with “This powder” for “The powder”, “the” for “the crude”, “10707. […]” for “10707. First, Fortimicin KF is eluted followed by Fortimicin A and Fortimicin D. The active fractions are subjected to thin layer chromatography. The fractions containing Fortimicin KF are collected and concentrated under reduced pressure to remove the solvent.”

[4] = test system: Salmonella typhosa ATCC 9992; experiment: Minimum inhibitory concentration, agar dilution method at pH 8.0; assay type: cell-based; details: Salmonella enterica
Excerpt: as §1, §2, §3

[5] = test system: Shigella sonnei ATCC 9290; experiment: as above; assay type: cell-based; details: ATCC9290
Excerpt: as §1, §2, §3

[6] = test system: Bacillus subtilis No. 10707; experiment: as above; assay type: cell-based
Excerpt: as §1, §2, §3

[7] = test system: Staphylococcus aureus ATCC 6538P; experiment: as above; assay type: cell-based; details: ATCC6538P
Excerpt: as §1, §2, §3

[8] = test system: Klebsiella pneumoniae ATCC 10031; experiment: as above; assay type: cell-based; details: ATCC10031
Excerpt: as §1, §2, §3

[9] = test system: Proteus vulgaris ATCC 6897; experiment: as above; assay type: cell-based; details: ATCC6897
Excerpt: as §1, §2, §3

Escherichia coli ATCC 26 = experiment: as above; assay type: cell-based; details: ATCC26
Excerpt: as §1, §2, §3

[10] = Example 3, before cellulose column chromatography
[11] = Example 3, purified preparate of the free base after cellulose column chromatography
[12] = purified preparate of the free base, Examples 1 and 2 (1 mg of a pure preparate defined as 1000 units)

| SMILES | solubility in organic solvents [1] | solubility in ethanol and acetone [1] | solubility in methanol [1] | solubility in water [1] | solubility in the ordinary organic solvents [1] | antibacterial activity [2] | antibacterial activity ([2]; listed as KF) | activity [3, 10] [units/mg] | activity [3, 11] [units/mg] | activity ([3]; Example 4) [units/mg] | activity [3, 12] | MIC [4] [µg/mL] | MIC [5] [µg/mL] | MIC [6] [µg/mL] | MIC [7] [µg/mL] | MIC [8] [µg/mL] | MIC [9] [µg/mL] | MIC (Escherichia coli ATCC 26) [µg/mL] | antibacterial activity ([2]; listed as KG) |
| --- | --- | --- | --- | --- | --- | --- | --- | --- | --- | --- | --- | --- | --- | --- | --- | --- | --- | --- | --- |
| CNC1C(O)C(OC2OC(CN)=CCC2N)C(N)C(O)C1OC (stereo not drawn) [Fortimicin KF] | insoluble | slightly soluble | soluble | readily soluble; also recorded: very soluble | poorly soluble | strong antibacterial activity against a broad range of Gram-positive and Gram-negative bacteria | broad antibacterial activity | 860 | 980 | 985 | about 970 units/mg | 4.2 (≈ 12.6 µM) | 8.4 (≈ 25.3 µM) | 4.2 (≈ 12.6 µM) | 2.1 (≈ 6.32 µM) | 4.2 (≈ 12.6 µM) | 4.2 (≈ 12.6 µM) | 4.2 (≈ 12.6 µM) | – |
| CNC1C(O)C(OC2OC(C(C)N)=CCC2N)C(N)C(O)C1OC (stereo not drawn) [Fortimicin KG] | insoluble | slightly soluble | soluble | readily soluble; also recorded: very soluble | poorly soluble | strong antibacterial activity against a broad range of Gram-positive and Gram-negative bacteria | – | 860 | 980 | 985 | about 970 units/mg | 2.3 (≈ 6.64 µM) | 9 (≈ 26 µM) | 4.5 (≈ 13 µM) | 1.1 (≈ 3.18 µM) | 4.5 (≈ 13 µM) | 4.5 (≈ 13 µM) | 4.5 (≈ 13 µM) | broad antibacterial activity |
